# According to patent US20100273700A1, “USE OF A PEPTIDE AS A THERAPEUTIC AGENT” (priority 2007, published 2010):
# System: drug-resistant Mycobacterium tuberculosis
# Conditions: 5 micrograms per ml
smiles,measurement,value
CC(C)C[C@H](NC(=O)[C@H](Cc1ccccc1)NC(=O)CNC(=O)CNC(=O)[C@@H](N)Cc1ccc(O)cc1)C(=O)N[C@@H](CCCNC(=N)N)C(=O)N[C@@H](CCCNC(=N)N)C(=O)N[C@@H](CCC(N)=O)C(=O)N[C@@H](Cc1ccccc1)C(=O)N[C@@H](CCCCN)C(=O)N[C@H](C(=O)N[C@H](C(=O)N[C@H](C(=O)O)[C@@H](C)O)C(C)C)C(C)C [Dynorphin B],% inhibition,0.0%
